Publication PMC10014103, “The immunometabolite itaconate stimulates OXGR1 to promote mucociliary clearance during the pulmonary innate immune response” (The Journal of Clinical Investigation, 2023)

Assays:
OXGR1 = test: Cellular thermal shift assay of OXGR1; type: binding, human; settings: 1 mM ITA, 37 to 62 °C
Description: Supplementary Figure 4. ITA increases the thermostability of OXGR1
Cells expressing Myc-tagged BirA along with AviTag-tagged wildtype (A) or R110A mutant (B) OXGR1 were treated with 1 μM biotin for 16 hours in serum-free medium to biotinylate OXGR1 in native conformation. Cells were treated with or without 1mM ITA, lysed, and incubated under different temperatures (from 37 to 62℃) for 3 minutes.
Denatured protein was removed by centrifuge. Biotinylated OXGR1 was determined by Western blot and quantified. […]

human GPCRs = target: T1, human GPCRs (Homo sapiens, UniProt Q96P68); test: Screen of 301 human GPCRs in transfected HEK293 cells (aequorin, Gα16 coexpression); type: cell-based; settings: 301 GPCRs, ligand final 0.625 mM; result for OXGR1
T1 construct: expressed in transfected cells; host or cells: HEK293
Source text: In our search for the function and mechanism of secreted ITA, we noted the signaling of the GPCR proteins SUCNR1/GPR91 and OXGR1/GPR99, which sense the TCA metabolites succinate and α-KG, which are structurally similar to ITA ([27]). To test the hypothesis that ITA may similarly signal through a GPCR, we performed a screening of human GPCRs in transfected HEK293 cells and measured GPCR-dependent calcium mobilization (Figure 1E and Supplemental Figure 1; supplemental material available online with this article; https://doi.org/10.1172/JCI160463DS1). In order to allow more GPCRs to couple with the calcium pathway, we optimized the screening system by inducing coexpression of the promiscuous Gq family α subunit Gα16 ([34]). We examined 301 GPCRs that cover more than 70% of the nonolfactory GPCRs encoded by the human genome ([35]).
For the aequorin assay, HEK293 cells were transfected with aequorin plasmids (Addgene no. 78734), Gα16 plasmid, and GPCR plasmids. Thirty-six hours after transfection, cells were maintained in serum-free medium for 12 hours and then loaded with 5 μM coelenterazine for 3 hours. […] Ligands (100 μL, diluted to 1.25 mM in HBSS buffer, with a final concentration of 0.625 mM) were injected into plates, and luminance was recorded for 30 seconds using the BioTek Synergy H1 plate reader.

[1] = system: respiratory epithelium mucin secretion; test: Intranasal administration, mucin-containing cells in nasal cavity (Alcian blue/PAS); type: in vivo, mouse; settings: intranasal 500 μM ITA, 1 hour
Source text: Harvested mouse skulls were fixed in 4% paraformaldehyde overnight and decalcified with 12% EDTA for 2 weeks. After full decalcification, the snoots were trimmed in between the incisor teeth and the first molar teeth. Trimmed tissues were embedded with paraffin, and sections were taken from the most proximal aspect of the nasal cavity. Mucin-containing epithelial cells distributed in the basement membrane of the nasal cavity floor and septum were visualized by Alcian blue/PAS staining and manually counted.

human OXGR1 = human OXGR1 (Homo sapiens, UniProt Q96P68); test: Stress fiber assay in NIH3T3 cells stably expressing OXGR1; type: cell-based, mouse; settings: 500 μM ITA, 30 minutes, G12/13 coupling
Description: For the stress fiber assay, NIH3T3 cells stably expressing OXGR1 were treated with 500 μM ITA or 10 μM lysophosphatidic acid (LPA) for 30 minutes. Cells were fixed with 4% paraformaldehyde and permeabilized with 0.1% Triton X-100. Stress fibers were stained with FITC-phalloidin (Invitrogen, Thermo Fisher Scientific). Nuclei were stained with DAPI. Immunofluorescence images were captured with a Leica SP8 laser-scanning confocal microscope.

FLAG-tagged OXGR1 [2] = test: Endocytosis assay of FLAG-tagged OXGR1 in HEK293 cells; type: cell-based, human; settings: after ITA treatment
Description: (§1) For endocytosis assays, HEK293 cells stably expressing FLAG-OXGR1 were chilled on ice in DMEM medium supplemented with 30 mM HEPES for 10 minutes. […] Unbound antibody was then washed off with prechilled HBSS buffer. […] After ligand stimulation, cells were fixed and permeabilized. Subcellular localization of FLAG-tagged OXGR1 was detected using FITC-donkey anti-rabbit antibody (Invitrogen, Thermo Fisher Scientific), and nuclei were stained with DAPI (MilliporeSigma). Immunofluorescence images were captured with a Leica SP8 laser-scanning confocal microscope.

FLAG-tagged OXGR1 [3] = target: T2, FLAG-tagged OXGR1 (Homo sapiens, UniProt Q96P68); test: as above; type: cell-based; settings: WT OXGR1, within 10 minutes of ligand treatment
T2 construct: expressed in transfected cells
Description: as §1

[4] = system: primary mouse respiratory epithelial cells (ALI culture); test: Bead movement in ALI culture of primary mouse respiratory epithelial cells; type: cell-based; settings: 500 μM ITA, Oxgr1+/+ vs Oxgr1–/–
Description: . When they reached full confluence, the cells were differentiated by exposure to air and cultured in a serum-free medium for 20 days. ALI culturing of primary human bronchial epithelium was performed following the manufacturer’s manual ([…] Technologies). Briefly, cells were maintained in PneumaCult-Ex Plus medium on a Transwell insert. Medium on the lateral side was switched to PneumaCult-ALI medium. The apical side of the Transwell membrane was then carefully washed with prewarmed Dulbecco’s PBS (DPBS). Cells were differentiated by exposure to air for 3 weeks. The medium was changed every 2 days.
For the measurement of bead movement in ALI culture, the apical side of the ALI culture inserts was washed with PBS 5 times to fully remove mucus. The inserts were transferred to HBSS buffer supplemented with 30 mM HEPES and the indicated ligand, and 20 μL bath buffer containing red fluorescent beads was added to the apical side. After 15 minutes of equilibration, bead movement was monitored with the BioTek Cytation 5 cell imaging system.

[5] = ITA concentration in BAL after intranasal supplementation (LC-MS); type: in vivo; settings: mouse, bronchoalveolar lavage fluid (BAL), other: intranasal, 20 µL of saline containing 1 mM ITA; 0.5 hours after intranasal ITA supplementation
Description: The concentrations of urea in plasma and BAL were determined using a urea assay kit (Solarbio). For ITA determination, samples were extracted by 80% (vol/vol) chilled (–80°C) methanol and analyzed with an ultra-high-performance liquid chromatograph (Acquity UPLC I-Class, Waters) coupled to a triple quadrupole mass spectrometer (Xevo TQ-XS, Waters). For α-KG determination, samples were lyophilized and derived by methoxyamine (MilliporeSigma) and N-methyl-N-[tert-butyldimethylsilyl] trifluoroacetamide (MilliporeSigma) in pyridine (MilliporeSigma). The derivatized sample was injected into an Agilent 7890A-5975C GC-MS system with an HP-5MS column.
Supplementary Figure 8. ITA level is positively correlated with Mucin 5b or β-defensin 1 concentration in BAL from mice after P. aeruginosa infection
A. ITA concentration in BAL was determined by LC-MS after intranasal delivery of 20μL saline containing PAO1 and 1mM ITA (n=3-4).B-C. Comparison of Mucin 5b (B) and β-defensin1 (C) concentration in BAL of P. aeruginosainfected mice with indicated genotypes (n=4-10). Significance is determined by paired t-test. n.s., no significance. D-E. Correlation analysis of ITA concentration and Mucin 5b (D) or β-defensin1 concentration (E) in BAL ofP. aeruginosainfected WT mice. […]

Structure (SMILES): C=C(CC(=O)O)C(=O)O [ITA, itaconate]
- thermal stability of WT OXGR1 (OXGR1): increased the thermal stability
- calcium mobilization in GPCR screen (human GPCRs): the only receptor that showed robust and reproducible calcium mobilization
- mucin-containing cells in respiratory epithelium, Oxgr1+/+ mice [1]: decrease of mucin-containing cells
- mucin-containing cells in respiratory epithelium, Oxgr1–/– mice [1]: did not observe an effect
- stress fiber formation (human OXGR1): failed to affect stress fiber formation
- endocytosis of R110A or R261A mutant OXGR1 (FLAG-tagged OXGR1 [2]): did not undergo endocytosis
- endocytosis of OXGR1 (FLAG-tagged OXGR1 [3]): rapid endocytosis of OXGR1 was triggered
- movement of beads [4]: could accelerate the movement of beads in an Oxgr1-dependent manner
- concentration at 0.5 h [5]: 200 to 300 nM
